Results from US10584351B2, “Vectors conditionally expressing therapeutic proteins, host cells comprising the vectors, and uses thereof” (Intrexon Corporation, priority 2010, dated 2020).

What was measured:
[1] = system: PAN02 pancreatic cancer cells; experiment: Ad-RTS-mIL12 in the pancreatic cancer (PAN02) model; format: in vivo, mouse; settings: activator alone
Experimental: Female, 6- to 8-week-old C57b/6 immuno competent mice were inoculated subcutaneously (s.c.) with syngenic PAN02 pancreatic cancer cells (ATCC). Six days post cell inoculation, the mice were randomized into groups of five animals each in four groups—no treatment, activator (RG-115932) alone, Ad-RTS-mIL12 alone and Ad-RTS-mIL12 plus activator. The cohorts receiving activator ligand were fed 2018 Teklad Global 18% Protein Rodent Diet chow (Harlan Laboratories) blended with activator (1000 mg/kg chow) ad libitum. Cohorts receiving treatment with Ad-RTS-mIL12 alone or no treatment continued to receive 2018 Teklad Global 18% Protein Rodent Diet chow. Mice received treatment with a single intratumoral (i.t.) injection of Ad-RTS-mIL12 at dose level of 1e10 vp/100 ul in PBS, on Day 7 and Day 14 post tumor cell implantation. The tumor size averaged […] at the time of vector treatment initiation.
Tumor size and body weight of each mouse were monitored three times a week until the end of experiment. The experiment was terminated when the mice tumor size exceeded 600 mm^3. Since pancreatic tumors grow very slowly, we defined […]. The tumor growth in mice receiving no treatment was normal.

[2] = system: breast cancer (4T1) cells; experiment: Ad-RTS-mIL12 in the breast cancer (4T1) model; format: in vivo, mouse; settings: activator ligand alone, Day 26
Experimental: Six- to eight-week-old female BalbC mice were purchased from Charles River Laboratories or Harlan (USA). Animal care and experimental procedure were performed according to the Intrexon's Institutional Animal Care and Use Committee guideline.
Murine breast carcinoma (4T1) cell lines were purchased from ATCC (Manassas, Va.). The 4T1 cells were grown in Roswell Park Memorial Institute medium (RPMI) 1640 (ATCC, Manassas, Va. The medium was supplemented with heat-inactivated fetal calf serum (FCS) 10% v/v, 2-mM L-glutamine (Atlanta Biologicals, Inc, Lawrenceville, Ga.), 100 IU/ml penicillin G, and 100 μg/ml streptomycin. The cells were grown at 37° C. in 5% C02. All cell lines were routinely tested and found to be free of mycoplasma.
Female, 6- to 8-week-old BALB/c immune-competent mice were inoculated subcutaneously (s.c.) with syngenic breast cancer (4T1) cells, 1e5 cells/50 ul. Eight days post cell inoculation, the mice were randomized into groups of five animals each in four groups—no treatment, activator alone, Ad-RTS-mIL12 alone and Ad-RTS-mIL12 plus activator. The cohorts receiving activator ligand were fed rodent chow blended with activator (1000 mg/kg) ad libitum. […] Tumor size and body weight of each mouse were monitored three times a week until the end of experiment. […]

[3] = system: murine melanoma cancer cells (B16F0); experiment: Ad-RTS-mIL12 with different activator doses in the melanoma (B16F0) model; format: in vivo, mouse; settings: activator chow alone
Experimental: Female, 6- to 8-week-old C57b/6 immunocompetent mice were inoculated subcutaneously (s.c.) with murine melanoma cancer cells (B16F0). Ten days post cell inoculation, the mice were randomly assigned to treatment and control groups (n=5) for a total of nine groups: no treatment (control), activator (L) (RG-115932) alone, and AdRTS-mlL12 alone, and Ad-RTS-mIL12 with different activator dose (50, 100, 250, 500 and 1000 mg/kg) of ligand. The cohorts receiving activator (L) were fed rodent 2018 Teklad Global 18% Protein Rodent Diet chow blended with activator (1000 mg/kg chow) ad libitum. Cohorts receiving treatment with Ad-RTS-mIL12 alone or no treatment continued to receive a regular 2018 Teklad Global 18% Protein Rodent Diet chow diet. Treatment was initiated when the tumor reached […]. A single dose of Ad-RTSmIL12 (1e10 vp/100 ul in PBS) was given to mice through intratumoral (i.t.) injection on Day 13 post tumor cell inoculation. The activator (L) chow was given to mice 24 hr prior to vector injection. Tumor size and body weight of each mouse were monitored three times a week using calipers and a weight scale until the end of experiment. The experiment was terminated when the tumor size exceeded >2000 mm^3. Data were uploaded into Study Log animal study software.

[4] = system: B16F0 murine melanoma cancer cells; experiment: Ad-RTS-IL-12 dose response study in the mouse B16F0 melanoma model; format: in vivo; settings: ligand by itself (chow)
Description: The anti-tumor effect of Ad-RTS-IL-12 has been evaluated in a series of murine tumor models of melanoma, colorectal, pancreatic, breast, lung and renal cancers. An exemplary dose response experiment is shown below. Immuno-competent female C57bl/6 mice (6-8 week old) were inoculated subcutaneously with B16F0 murine melanoma cancer cells. Eleven days after tumor cell inoculation, when macroscopic tumor nodules were evident (tumor volumes averaged approx. 40 mm^3), the mice were separated into groups of 5 animals each. There were 9 groups including: control saline treated; activator ligand treated; Ad-RTS-mIL12 ([…]) alone and 6 groups were treated with different doses of vector Ad-RTS-mIL-12 (1e7, 1e8, 1e9, 5e9, 1e10, 5e10 viral particles) plus activator ligand. Mice in the +ligand groups were provided 100 mg/kg activator ligand in 2018 Teklad Global 18% Protein Rodent Diet (Harlan Laboratories) chow (1000 mg ligand/kg chow) one day before the vector administration. The mice in control groups received 2018 Teklad Global 18% Protein Rodent Diet chow. A single administration of Ad-RTS-mIL12 in 100 ul PBS was injected into tumor on day 12. Tumor volume and body weights were measured every 2-3 days using calipers and a weight scale, and the animals were followed until control tumors reached 2000 mm^3. Data were uploaded into Study Log animal study software.

[5] = system: murine colon cancer cells (CT26Luc); experiment: Ad-RTS-mIL12 in the colon cancer (CT26Luc) model; format: in vivo, mouse; settings: activator chow alone
Description: Female, 6- to 8-week-old Balb/C immunocompetent mice were inoculated subcutaneously (s.c.) with luciferase expressing stable murine colon cancer cells (CT26Luc). Ten days post cell inoculation, the mice were randomly assigned to treatment and control groups (n=5) for a total of three groups—no treatment (control), activator (L) (RG-115932) alone, and Ad-RTS-mIL12 plus activator. The cohorts receiving activator (L) were fed 2018 Teklad Global 18% Protein Rodent Diet chow (Harlan Laboratories) blended with activator (1000 mg/kg chow) ad libitum. Cohorts receiving no treatment continued to receive 2018 Teklad Global 18% Protein Rodent Diet chow. Treatment was initiated when the tumor reached 40+17 mm^3. The Ad-RTS-mIL12 (1e10 vp/100 ul in PBS) was given to mice through intratumoral (i.t.) injection on Day 11 and 18 post tumor cell inoculation. The activator (L) chow was given to mice 24 hr prior to vector injection. Tumor size and body weight of each mouse were monitored three times a week using calipers and a weight scale until the end of experiment. The experiment was terminated when the mouse tumor size exceeds >2000 mm^3. Data were uploaded into Study Log animal study software.

[6] = system: murine Lewis lung carcinoma cells (LLC); experiment: Ad-RTS-mIL12 in the Lewis lung carcinoma (LLC) model; format: in vivo, mouse; settings: activator (L) chow alone
Description: Female, 6- to 8-week-old C57b/6 immunocompetent mice were inoculated subcutaneously (s.c.) with murine Lewis lung carcinoma cells (LLC). Five days post cell inoculation, the mice were randomized and assigned to treatment and control groups (n=5) for a total of four groups—no treatment (control), activator (RG-115932) alone, AdRTS-mIL12 alone and Ad-RTS-mIL12 plus activator. The cohorts receiving activator (L) were fed (2018 Teklad Global 18% Protein Rodent Diet (Harlan Laboratories) chow blended with activator (1000 mg/kg chow) ad libitum. Cohorts receiving treatment with Ad-RTS-mIL12 alone or no treatment continued to receive a regular diet. Treatment was initiated when the tumor reached 28±6 mm^3. The Ad-RTS-mIL12 (1e10 vp/100 ul in PBS) was given to mice through intratumoral (i.t.) injection on Day 6, 9 and 13 post tumor cell inoculation. Activator chow (L) was started to given to mice 24 hr prior to vector administration. Tumor size and body weight of each mouse were monitored three times a week using calipers and a weight scale until the end of experiment. The experiment was terminated when the mice tumor size exceeded >1200 mm^3. Data were uploaded into Study Log animal study software.

## CCC[C@@H](N(NC(=O)c1cccc(OC)c1CC)C(=O)c1cc(C)cc(C)c1)C(C)(C)C [RG-115932, (R)-3,5-Dimethyl-benzoic acid N-(1-tert-butyl-butyl)-N′-(2-ethyl-3-methoxy-benzoyl)-hydrazide]
[1]
  tumor growth delay: minor tumor growth delay
[2]
  tumor growth inhibition relative to control: 22%
[2]; listed as activator ligand (L)
  tumor growth inhibition relative to control: 35%
[3]
  anti-tumor activity: did not have anti-tumor activity
[4]
  anti-tumor effect: no effect
[5]
  tumor growth: did not inhibit tumor growth
[6]
  tumor growth kinetics versus control: approximately similar tumor growth kinetics
